US20110097264A1, “RADIOLABELING METHOD USING MULTIVALENT GLYCOLIGANDS AS HEPATIC RECEPTOR IMAGING AGENT” (Institute of Nuclear Energy Research Atomic Energy Council, …, priority 2009, published 2011)

Molecular target: T1, ASGPR (Mus musculus, UniProt P24721+P34927)
T1 construct: host or cells: murine hepatocytes (primary, plated)
T1 sequence (P34927 1-284): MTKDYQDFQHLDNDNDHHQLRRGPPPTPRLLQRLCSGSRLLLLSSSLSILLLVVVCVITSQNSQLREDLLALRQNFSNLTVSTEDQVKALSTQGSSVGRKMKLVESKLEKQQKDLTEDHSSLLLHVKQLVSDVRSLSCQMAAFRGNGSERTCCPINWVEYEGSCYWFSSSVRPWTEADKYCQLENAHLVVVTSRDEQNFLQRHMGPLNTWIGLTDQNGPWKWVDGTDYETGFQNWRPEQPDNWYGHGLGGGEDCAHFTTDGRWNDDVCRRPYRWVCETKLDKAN
T1 sequence (P24721 1-301): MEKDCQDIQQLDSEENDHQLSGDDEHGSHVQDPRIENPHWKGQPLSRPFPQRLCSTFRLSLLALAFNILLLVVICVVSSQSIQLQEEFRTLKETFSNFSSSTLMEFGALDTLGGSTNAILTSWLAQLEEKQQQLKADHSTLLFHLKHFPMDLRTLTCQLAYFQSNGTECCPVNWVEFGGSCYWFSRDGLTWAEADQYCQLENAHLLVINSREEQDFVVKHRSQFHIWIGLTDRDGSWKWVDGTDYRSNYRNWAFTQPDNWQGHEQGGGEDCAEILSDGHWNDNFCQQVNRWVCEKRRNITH
Assay: Binding strength of saccharide chain peptide and murine hepatocyte (competition with Eu-ASOR, time-resolved fluorescence)
Conditions: for IC50: murine hepatocyte, Eu-ASOR 10 nM, 5 mM calcium chloride, 1 hr
Protocol: With Eu-asialo-orosomucoid (Eu-ASOR) as reference material, the binding strength of saccharide chain peptide and murine hepatocyte is determined by comparing whether the binding degree of saccharide chain peptides, such as DCM-Lys(ah-GalNAc)3, DCM-Lys(Gah-GalNAc)3, DCM-Lys(ah-Lac)3, AHA-Asp[DCM-Lys(ah-Lac)3]2 with murine hepatocyte is higher than that of Eu-ASOR or not, in which the binding degree is expressed by IC50 (concentration of 50% inhibition), and the lower the IC50 is, the higher the binding degree is. The murine hepatocyte (from Lonza Biotechnology Company, Maryland) is plated in a 24-well plate in advance, and the reaction occurs in each well, into which (i) Eu-ASOR 10 nM (ii) hepatocyte basic medium with 5 mM calcium chloride, and (iii) five different concentrations of saccharide chain peptide of 1 uM-0.8 nM are added. After culturing under shaking for 1 hr, the substance that has not been bound to hepatocyte is removed by washing with the hepatocyte basic medium containing calcium chloride. Time-resolved fluorescence spectroscopy is preformed, that is, an enhancement solution (15
uM β-naphthoyl trifluoroacetone, 50 uM tri-n-octyl-phosphine oxide, 0.1 M potassium hydrogen phthalate, 0.1% Triton X-100 in 0.1 M acetic acid, pH 3.2) is added. The enhancement solution reacts with Eu^3+ to form a Eu chelate, which can emit a light of 615 nm when being excited at 340 nm. With the logarithm of the concentration of saccharide chain peptide as X axis, the emitted fluorescence value as Y axis, the fluorescence value without adding glycopeptide being set as 100%, the IC50 of each saccharide chain peptide can be calculated accordingly.

IC50 [nM]	SMILES	binding with ASGPR relative to YEE or YDD (compared with YEE or YDD, from Table 1) [times]
10	NCCCCCC(=O)N[C@@H](CC(=O)NCCCC[C@@H](C(=O)NCCCCCCOC1O[C@H](CO)[C@@H](O[C@@H]2O[C@H](CO)[C@H](O)[C@H](O)[C@H]2O)[C@H](O)[C@H]1O)N(CC(=O)NCCCCCCOC1O[C@H](CO)[C@@H](O[C@@H]2O[C@H](CO)[C@H](O)[C@H](O)[C@H]2O)[C@H](O)[C@H]1O)CC(=O)NCCCCCCOC1O[C@H](CO)[C@@H](O[C@@H]2O[C@H](CO)[C@H](O)[C@H](O)[C@H]2O)[C@H](O)[C@H]1O)C(=O)NCCCC[C@@H](C(=O)NCCCCCCOC1O[C@H](CO)[C@@H](O[C@@H]2O[C@H](CO)[C@H](O)[C@H](O)[C@H]2O)[C@H](O)[C@H]1O)N(CC(=O)NCCCCCCOC1O[C@H](CO)[C@@H](O[C@@H]2O[C@H](CO)[C@H](O)[C@H](O)[C@H]2O)[C@H](O)[C@H]1O)CC(=O)NCCCCCCOC1O[C@H](CO)[C@@H](O[C@@H]2O[C@H](CO)[C@H](O)[C@H](O)[C@H]2O)[C@H](O)[C@H]1O (stereo partly drawn) [AHA-Asp[DCM-Lys(ahLac)3]2, AHA-Asp[DCM-Lys(ah-Lac)3]2]	
	CC(=O)N[C@H]1[C@H](OCCCCCCNC(=O)CNC(=O)CN(CC(=O)NCC(=O)NCCCCCCO[C@@H]2O[C@H](CO)[C@H](O)[C@H](O)[C@H]2NC(C)=O)[C@@H](CCCCN)C(=O)NCC(=O)NCCCCCCO[C@@H]2O[C@H](CO)[C@H](O)[C@H](O)[C@H]2NC(C)=O)O[C@H](CO)[C@H](O)[C@@H]1O [DCM-Lys(GahGalNAc)3]	10
10	CC(=O)N[C@H]1[C@H](OCCCCCCNC(=O)CC[C@H](NC(=O)[C@H](CCC(=O)NCCCCCCO[C@@H]2O[C@H](CO)[C@H](O)[C@H](O)[C@H]2NC(C)=O)NC(=O)[C@@H](N)Cc2ccc(O)cc2)C(=O)NCCCCCCO[C@@H]2O[C@H](CO)[C@H](O)[C@H](O)[C@H]2NC(C)=O)O[C@H](CO)[C@H](O)[C@@H]1O [YEE(ahGalNAc)3, reference compound]	
